Reference: patent publication US9631001B2, “Peptide antagonists of the vasopressin-2 receptor” (COMMISSARIAT A L'ENERGIE ATOMIQUE ET AUX ENERGIES …, priority 2012, dated 2017)

Key:
Assay in all cases: IonWorks electrophysiological assay
Assay type in all cases: cell-based
Conditions in all cases: 1 μM
[1] = biological target: T1, Kir2.1 (Homo sapiens, UniProt P63252)
T1 construct: expressed in transfected cells
T1 sequence (P63252 1-427): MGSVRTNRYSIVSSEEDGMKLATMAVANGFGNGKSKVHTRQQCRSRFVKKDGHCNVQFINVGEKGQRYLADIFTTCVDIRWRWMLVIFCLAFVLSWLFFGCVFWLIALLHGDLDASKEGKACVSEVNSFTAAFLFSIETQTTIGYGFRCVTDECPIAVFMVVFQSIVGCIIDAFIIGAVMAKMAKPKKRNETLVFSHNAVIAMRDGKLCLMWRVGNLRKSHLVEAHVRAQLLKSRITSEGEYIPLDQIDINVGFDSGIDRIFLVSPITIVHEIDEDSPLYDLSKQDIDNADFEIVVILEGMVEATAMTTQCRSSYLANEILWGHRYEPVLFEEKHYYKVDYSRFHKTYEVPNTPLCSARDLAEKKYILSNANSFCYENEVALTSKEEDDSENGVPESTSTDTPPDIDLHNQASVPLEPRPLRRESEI
Method: (§1) The stock solution was transferred to a master plate and into assay plates where 2 μl per well of the solution were placed. On the day of the assay, 198 μl of external solution containing the appropriate DMSO concentration was added and mixed thoroughly. This provided a 1:100 dilution. A further 1:3 dilution occurred upon addition to the cells in the IonWorks, giving a 1:300 dilution in total. On each assay plate, at least 8 wells were reserved for vehicle control (0.3% DMSO) and at least 8 wells for each positive control specific to the cell line tested. The positive controls were tested at a maximal blocking and an approximate IC50 concentration. The compounds used for positive controls: Nav1.5 100 μM and 5 mM Lidocaine, Kv4.3/KChIP2 20 μM and 500 μM Quinidine, Cav1.2 1 μM and 100 μM Nitrendipine, Kv1.5 300 μM and 10 mM 4-AP, KCNQ1/minK 10 μM and 100 μM Chromanol 293B, hERG 0.1 μM and 1 μM Cisapride, HCN4 50 μM and 3 mM Cesium, Kir2.1 20 μM and 500 μM Barium.

[2] = biological target: T2, Cav1.2 (Homo sapiens, UniProt Q13936)
T2 construct: expressed in transfected cells
T2 sequence (Q13936 whole entry): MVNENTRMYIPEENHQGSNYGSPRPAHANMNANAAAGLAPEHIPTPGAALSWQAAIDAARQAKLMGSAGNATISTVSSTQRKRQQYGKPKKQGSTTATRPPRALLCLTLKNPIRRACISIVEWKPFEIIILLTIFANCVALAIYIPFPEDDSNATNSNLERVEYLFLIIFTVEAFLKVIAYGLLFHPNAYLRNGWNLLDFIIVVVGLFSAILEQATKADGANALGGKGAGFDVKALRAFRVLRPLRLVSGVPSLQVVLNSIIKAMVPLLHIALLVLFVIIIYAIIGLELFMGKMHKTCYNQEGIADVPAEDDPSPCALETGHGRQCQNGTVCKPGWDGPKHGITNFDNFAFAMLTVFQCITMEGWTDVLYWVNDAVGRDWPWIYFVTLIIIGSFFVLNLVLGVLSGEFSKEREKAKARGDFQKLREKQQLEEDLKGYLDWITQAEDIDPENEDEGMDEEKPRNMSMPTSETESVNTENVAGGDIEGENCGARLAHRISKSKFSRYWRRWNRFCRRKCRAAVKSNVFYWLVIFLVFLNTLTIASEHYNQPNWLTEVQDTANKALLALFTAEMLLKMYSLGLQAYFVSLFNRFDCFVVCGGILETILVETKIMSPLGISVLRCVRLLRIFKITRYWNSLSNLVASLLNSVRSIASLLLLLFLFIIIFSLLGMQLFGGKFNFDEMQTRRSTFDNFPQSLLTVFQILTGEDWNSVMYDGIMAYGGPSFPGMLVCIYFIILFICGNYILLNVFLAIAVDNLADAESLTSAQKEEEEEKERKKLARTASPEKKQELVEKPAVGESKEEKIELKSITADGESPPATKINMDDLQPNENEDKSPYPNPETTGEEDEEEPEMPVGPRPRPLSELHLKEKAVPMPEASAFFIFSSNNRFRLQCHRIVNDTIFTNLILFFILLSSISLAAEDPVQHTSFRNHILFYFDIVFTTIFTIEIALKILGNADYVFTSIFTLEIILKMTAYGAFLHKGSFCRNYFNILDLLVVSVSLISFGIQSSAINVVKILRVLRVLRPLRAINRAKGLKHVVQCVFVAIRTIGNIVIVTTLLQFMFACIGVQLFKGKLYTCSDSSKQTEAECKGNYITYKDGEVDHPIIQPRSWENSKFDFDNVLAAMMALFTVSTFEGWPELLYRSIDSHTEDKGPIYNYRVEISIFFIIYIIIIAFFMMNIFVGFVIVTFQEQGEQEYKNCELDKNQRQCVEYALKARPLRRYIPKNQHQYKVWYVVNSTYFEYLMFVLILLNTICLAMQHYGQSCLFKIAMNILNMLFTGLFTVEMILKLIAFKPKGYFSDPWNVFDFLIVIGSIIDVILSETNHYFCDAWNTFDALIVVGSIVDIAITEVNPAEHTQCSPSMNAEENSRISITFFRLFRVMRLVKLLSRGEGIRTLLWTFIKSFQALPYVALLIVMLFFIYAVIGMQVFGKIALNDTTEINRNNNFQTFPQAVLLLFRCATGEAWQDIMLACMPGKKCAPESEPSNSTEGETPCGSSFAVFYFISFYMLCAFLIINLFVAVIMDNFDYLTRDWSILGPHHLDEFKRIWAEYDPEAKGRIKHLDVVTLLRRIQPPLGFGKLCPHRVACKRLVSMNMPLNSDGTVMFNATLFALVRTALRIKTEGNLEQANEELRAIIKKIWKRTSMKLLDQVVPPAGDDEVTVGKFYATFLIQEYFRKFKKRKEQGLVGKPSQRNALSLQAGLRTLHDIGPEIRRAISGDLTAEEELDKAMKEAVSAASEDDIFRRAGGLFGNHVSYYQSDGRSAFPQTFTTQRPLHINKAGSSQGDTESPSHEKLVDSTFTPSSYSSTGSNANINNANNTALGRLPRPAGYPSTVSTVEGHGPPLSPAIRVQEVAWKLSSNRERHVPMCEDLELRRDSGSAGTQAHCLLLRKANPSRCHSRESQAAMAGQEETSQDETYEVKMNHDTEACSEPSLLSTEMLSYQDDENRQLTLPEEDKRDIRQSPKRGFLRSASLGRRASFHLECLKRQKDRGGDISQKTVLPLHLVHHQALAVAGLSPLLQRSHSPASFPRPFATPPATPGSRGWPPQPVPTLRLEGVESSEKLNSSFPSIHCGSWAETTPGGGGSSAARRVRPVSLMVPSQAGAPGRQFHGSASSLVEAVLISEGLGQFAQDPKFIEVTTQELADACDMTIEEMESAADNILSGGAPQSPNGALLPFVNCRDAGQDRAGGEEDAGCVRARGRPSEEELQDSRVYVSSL
T2 sequence (Q08289 whole entry partner): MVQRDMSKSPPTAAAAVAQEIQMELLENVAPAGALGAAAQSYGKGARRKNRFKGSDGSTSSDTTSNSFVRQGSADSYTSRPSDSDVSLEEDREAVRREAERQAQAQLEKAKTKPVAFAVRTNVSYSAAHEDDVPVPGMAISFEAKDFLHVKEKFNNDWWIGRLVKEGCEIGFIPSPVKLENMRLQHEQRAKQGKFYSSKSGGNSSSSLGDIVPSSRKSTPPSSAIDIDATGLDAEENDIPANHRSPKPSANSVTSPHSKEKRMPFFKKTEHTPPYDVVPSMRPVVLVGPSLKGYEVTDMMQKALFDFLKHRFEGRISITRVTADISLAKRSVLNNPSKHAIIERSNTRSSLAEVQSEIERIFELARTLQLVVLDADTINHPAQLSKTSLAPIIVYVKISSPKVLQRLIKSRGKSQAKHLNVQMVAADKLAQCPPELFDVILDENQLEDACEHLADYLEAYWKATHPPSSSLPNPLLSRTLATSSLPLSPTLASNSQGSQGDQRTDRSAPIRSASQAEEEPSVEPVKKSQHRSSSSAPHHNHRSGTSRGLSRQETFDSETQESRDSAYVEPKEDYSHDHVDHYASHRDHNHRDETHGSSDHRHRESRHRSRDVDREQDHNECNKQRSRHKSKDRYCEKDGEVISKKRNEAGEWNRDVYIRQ
T2 sequence (P54289 25-956 partner limits assumed): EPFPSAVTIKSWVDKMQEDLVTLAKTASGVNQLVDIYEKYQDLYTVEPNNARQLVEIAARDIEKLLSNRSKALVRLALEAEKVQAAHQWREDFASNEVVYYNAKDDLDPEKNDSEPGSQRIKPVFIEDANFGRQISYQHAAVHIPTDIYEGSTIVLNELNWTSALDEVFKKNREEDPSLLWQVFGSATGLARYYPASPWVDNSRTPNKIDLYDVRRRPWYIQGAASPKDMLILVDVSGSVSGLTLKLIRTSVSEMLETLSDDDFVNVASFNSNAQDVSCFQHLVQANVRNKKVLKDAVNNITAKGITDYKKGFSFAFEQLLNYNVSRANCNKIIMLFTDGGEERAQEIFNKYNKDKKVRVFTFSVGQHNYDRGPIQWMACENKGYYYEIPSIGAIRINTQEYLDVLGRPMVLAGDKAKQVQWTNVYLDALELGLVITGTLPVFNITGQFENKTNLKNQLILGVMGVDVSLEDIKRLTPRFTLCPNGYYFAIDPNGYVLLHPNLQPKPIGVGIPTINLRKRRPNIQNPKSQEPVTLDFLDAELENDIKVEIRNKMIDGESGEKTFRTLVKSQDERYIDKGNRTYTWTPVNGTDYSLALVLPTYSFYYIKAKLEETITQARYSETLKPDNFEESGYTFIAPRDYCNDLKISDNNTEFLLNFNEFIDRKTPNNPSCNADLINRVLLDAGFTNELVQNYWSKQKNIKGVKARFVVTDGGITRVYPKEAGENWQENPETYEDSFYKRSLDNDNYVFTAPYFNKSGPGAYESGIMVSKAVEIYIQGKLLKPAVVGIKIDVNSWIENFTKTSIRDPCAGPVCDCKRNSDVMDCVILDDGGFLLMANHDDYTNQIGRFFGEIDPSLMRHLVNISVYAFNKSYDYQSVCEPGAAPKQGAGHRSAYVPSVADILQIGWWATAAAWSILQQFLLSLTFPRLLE
T2 sequence (P54289 957-1103 partner limits assumed): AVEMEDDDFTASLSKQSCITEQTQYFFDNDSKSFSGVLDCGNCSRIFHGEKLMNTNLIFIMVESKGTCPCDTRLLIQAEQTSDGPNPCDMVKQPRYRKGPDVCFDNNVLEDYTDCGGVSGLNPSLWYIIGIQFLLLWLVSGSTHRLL
Method: as §1

[3] = biological target: T3, Nav1.5 (Homo sapiens, UniProt Q14524)
T3 construct: expressed in transfected cells
Method: as §1

[4] = biological target: T4, hERG (Homo sapiens, UniProt Q12809)
T4 construct: expressed in transfected cells
T4 sequence (Q12809 whole entry): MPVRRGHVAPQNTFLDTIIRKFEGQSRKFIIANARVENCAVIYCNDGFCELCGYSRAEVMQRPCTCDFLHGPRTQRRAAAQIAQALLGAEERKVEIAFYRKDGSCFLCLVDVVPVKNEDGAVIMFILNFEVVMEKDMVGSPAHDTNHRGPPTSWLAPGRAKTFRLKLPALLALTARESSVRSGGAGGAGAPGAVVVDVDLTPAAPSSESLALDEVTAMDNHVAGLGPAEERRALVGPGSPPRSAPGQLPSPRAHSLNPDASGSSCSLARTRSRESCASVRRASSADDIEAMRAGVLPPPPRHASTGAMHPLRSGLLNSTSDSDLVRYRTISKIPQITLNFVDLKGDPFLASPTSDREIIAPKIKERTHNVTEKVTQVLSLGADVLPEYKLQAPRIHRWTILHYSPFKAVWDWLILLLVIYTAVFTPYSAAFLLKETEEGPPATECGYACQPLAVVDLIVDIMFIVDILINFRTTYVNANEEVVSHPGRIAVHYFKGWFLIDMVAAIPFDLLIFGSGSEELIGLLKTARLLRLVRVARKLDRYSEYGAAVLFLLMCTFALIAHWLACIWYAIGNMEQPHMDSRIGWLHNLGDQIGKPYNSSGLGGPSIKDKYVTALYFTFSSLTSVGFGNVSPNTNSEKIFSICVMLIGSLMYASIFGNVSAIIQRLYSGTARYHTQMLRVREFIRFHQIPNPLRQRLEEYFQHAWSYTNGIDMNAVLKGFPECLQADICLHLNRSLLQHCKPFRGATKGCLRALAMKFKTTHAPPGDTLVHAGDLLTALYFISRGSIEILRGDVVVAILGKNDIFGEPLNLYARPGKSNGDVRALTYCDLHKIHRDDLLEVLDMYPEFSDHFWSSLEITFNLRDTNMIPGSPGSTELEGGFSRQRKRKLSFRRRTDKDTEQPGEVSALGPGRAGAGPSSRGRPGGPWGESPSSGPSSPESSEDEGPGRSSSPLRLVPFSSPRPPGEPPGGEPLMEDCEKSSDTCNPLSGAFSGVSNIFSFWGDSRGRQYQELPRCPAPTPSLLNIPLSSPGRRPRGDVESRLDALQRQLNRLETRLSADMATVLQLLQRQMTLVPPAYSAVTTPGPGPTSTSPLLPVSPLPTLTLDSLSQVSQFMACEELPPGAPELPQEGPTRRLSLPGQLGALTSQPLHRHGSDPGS
Method: as §1

[5] = biological target: T5, Kv1.5 (Homo sapiens, UniProt P22460)
T5 construct: expressed in transfected cells
Method: as §1

[6] = biological target: T6, Kv4.3/KChIP2 (Homo sapiens, UniProt Q9UK17)
T6 construct: expressed in transfected cells
T6 sequence (Q9UK17 1-655): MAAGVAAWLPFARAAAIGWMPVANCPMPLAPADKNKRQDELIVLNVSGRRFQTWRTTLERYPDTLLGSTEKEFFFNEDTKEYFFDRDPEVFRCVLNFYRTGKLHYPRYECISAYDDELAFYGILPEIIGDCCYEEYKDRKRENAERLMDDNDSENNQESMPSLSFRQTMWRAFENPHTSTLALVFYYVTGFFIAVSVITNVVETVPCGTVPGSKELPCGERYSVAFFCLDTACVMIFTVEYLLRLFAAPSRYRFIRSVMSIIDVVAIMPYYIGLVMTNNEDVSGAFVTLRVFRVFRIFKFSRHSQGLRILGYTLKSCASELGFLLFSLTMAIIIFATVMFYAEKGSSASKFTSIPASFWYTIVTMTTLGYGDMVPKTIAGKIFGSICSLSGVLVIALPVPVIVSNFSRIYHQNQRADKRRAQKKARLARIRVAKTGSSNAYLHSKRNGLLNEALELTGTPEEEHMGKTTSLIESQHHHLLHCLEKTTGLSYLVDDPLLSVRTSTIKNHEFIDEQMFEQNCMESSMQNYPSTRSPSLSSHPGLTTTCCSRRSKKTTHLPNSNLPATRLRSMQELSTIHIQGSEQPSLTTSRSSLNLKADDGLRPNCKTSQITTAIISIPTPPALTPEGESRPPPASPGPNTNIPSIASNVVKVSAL
T6 sequence (Q9NS61 1-270 partner): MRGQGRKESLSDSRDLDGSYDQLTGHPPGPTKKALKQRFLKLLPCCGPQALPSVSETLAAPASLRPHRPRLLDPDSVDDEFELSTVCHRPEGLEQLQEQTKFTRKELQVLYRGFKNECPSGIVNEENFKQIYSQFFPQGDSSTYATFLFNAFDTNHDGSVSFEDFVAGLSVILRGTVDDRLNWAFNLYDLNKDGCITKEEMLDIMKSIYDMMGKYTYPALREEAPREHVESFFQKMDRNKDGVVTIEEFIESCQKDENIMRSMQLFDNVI
Method: as §1

CC[C@H](C)[C@@H]1NC(=O)[C@H]([C@@H](C)O)NC(=O)[C@H](CO)NC(=O)[C@H](Cc2ccccc2)NC(=O)[C@H](CCCNC(=N)N)NC(=O)[C@H](CC(N)=O)NC(=O)[C@H](C)NC(=O)[C@H](CC(N)=O)NC(=O)CNC(=O)[C@H](CCCCN)NC(=O)[C@@H]2CSSC[C@@H]3NC(=O)[C@@H]4CCCN4C(=O)CNC(=O)[C@@H]4CCCN4C(=O)[C@H](CCCCN)NC(=O)[C@H](C(C)C)NC(=O)[C@@H]4CCCN4C(=O)[C@H](CC(C)C)NC(=O)[C@H](CC(N)=O)NC(=O)[C@@H](NC(=O)[C@H](Cc4ccccc4)NC(=O)[C@H](CO)NC(=O)[C@@H]4CCCN4C(=O)[C@@H](N)CCCNC(=N)N)CSSC[C@@H](C(=O)N[C@H](C(=O)NCC(=O)O)C(C)C)NC(=O)[C@H]([C@@H](C)O)NC(=O)[C@H](CCCNC(=N)N)NC(=O)[C@H](CCCNC(=N)N)NC(=O)[C@H](CSSC[C@H](NC(=O)[C@H](CCCCN)NC(=O)[C@H](CC(N)=O)NC(=O)[C@H]([C@@H](C)O)NC(=O)[C@H](CCCCN)NC(=O)[C@H](CCC(N)=O)NC(=O)[C@H](CO)NC(=O)[C@H](Cc4ccc(O)cc4)NC(=O)[C@H](Cc4ccc(O)cc4)NC(=O)[C@H](Cc4ccccc4)NC(=O)[C@H](C)NC(=O)[C@H](CO)NC(=O)[C@H](Cc4ccccc4)NC(=O)[C@H](Cc4ccccc4)NC(=O)CNC(=O)[C@H](CC(N)=O)NC3=O)C(=O)N[C@@H](Cc3c[nH]cn3)C(=O)N[C@@H](CO)C(=O)N[C@@H](Cc3ccccc3)C(=O)N[C@@H]([C@@H](C)O)C(=O)N[C@@H](Cc3ccc(O)cc3)C(=O)NCC(=O)NCC(=O)N2)NC(=O)[C@H](CCCCN)NC(=O)[C@H](CCC(=O)O)NC1=O [U-Da2a]
inhibition of Kir2.1 [1]: did not appear to exhibit significant inhibition | inhibition of Cav1.2 [2]: did not appear to exhibit significant inhibition | inhibition of Nav1.5 [3]: did not appear to exhibit significant inhibition | inhibition of hERG [4]: did not appear to exhibit significant inhibition | inhibition of Kv1.5 [5]: did not appear to exhibit significant inhibition | inhibition of Kv4.3/KChIP2 [6]: did not appear to exhibit significant inhibition
